The text below walks through data of US20230073777A1, “CYCLIC-AMP RESPONSE ELEMENT BINDING PROTEIN (CBP) AND/OR ADENOVIRAL E1A BINDING PROTEIN OF 300 KDA (P300) DEGRADATION COMPOUNDS AND METHODS OF USE” (CULLGEN (SHANGHAI), INC., priority 2019, published 2023).

One experiment concerns the target P300 (Homo sapiens, UniProt Q09472). In words: Immunoblotting of P300 protein levels in LNCaP or 22RV1 cells. It is filed as cell-based. Further details: LNCaP or 22RV1 cells that express CBP/P300 proteins were treated with GNE-781 or the bivalent compounds; endogenous in cells; host or cells: LNCaP (clone FGC) or 22RV1 cells. The note with it: percentage of inhibition of p300 at 10 nM (Table 3); read-out: Degradation (10 nM). The procedure, abridged:
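LNCaP or 22RV1 cells treated with compounds for indicated hours, DMSO as negative control. RIPA lysates resolved by SDS-PAGE and immunoblotted for P300 or CBP, tubulin or vinculin as loading control; chemiluminescent bands quantitated.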

Another experiment has as its system LNCaP cells. In words: LNCaP cell viability assay (CellTiter-Glo). The experiment is classed as cell-based. Conditions: Homo sapiens, 72 h; LNCaP prostate cancer cell viability inhibition, 3 days, CellTiter-Glo (Table 3). The procedure, abridged:
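LNCaP cells, 5000/well, exposed to compounds in 12-point 3-fold serial dilution (top 10 μM) for 3 days. Viability by CellTiter-Glo luminescence, normalized to untreated cells; IC50 by least-squares nonlinear regression.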
Background: In ATP-based viability assays light output follows the ATP content of the culture.

Bounds are passed on as bounds.

P300, sequence (Q09472 whole entry): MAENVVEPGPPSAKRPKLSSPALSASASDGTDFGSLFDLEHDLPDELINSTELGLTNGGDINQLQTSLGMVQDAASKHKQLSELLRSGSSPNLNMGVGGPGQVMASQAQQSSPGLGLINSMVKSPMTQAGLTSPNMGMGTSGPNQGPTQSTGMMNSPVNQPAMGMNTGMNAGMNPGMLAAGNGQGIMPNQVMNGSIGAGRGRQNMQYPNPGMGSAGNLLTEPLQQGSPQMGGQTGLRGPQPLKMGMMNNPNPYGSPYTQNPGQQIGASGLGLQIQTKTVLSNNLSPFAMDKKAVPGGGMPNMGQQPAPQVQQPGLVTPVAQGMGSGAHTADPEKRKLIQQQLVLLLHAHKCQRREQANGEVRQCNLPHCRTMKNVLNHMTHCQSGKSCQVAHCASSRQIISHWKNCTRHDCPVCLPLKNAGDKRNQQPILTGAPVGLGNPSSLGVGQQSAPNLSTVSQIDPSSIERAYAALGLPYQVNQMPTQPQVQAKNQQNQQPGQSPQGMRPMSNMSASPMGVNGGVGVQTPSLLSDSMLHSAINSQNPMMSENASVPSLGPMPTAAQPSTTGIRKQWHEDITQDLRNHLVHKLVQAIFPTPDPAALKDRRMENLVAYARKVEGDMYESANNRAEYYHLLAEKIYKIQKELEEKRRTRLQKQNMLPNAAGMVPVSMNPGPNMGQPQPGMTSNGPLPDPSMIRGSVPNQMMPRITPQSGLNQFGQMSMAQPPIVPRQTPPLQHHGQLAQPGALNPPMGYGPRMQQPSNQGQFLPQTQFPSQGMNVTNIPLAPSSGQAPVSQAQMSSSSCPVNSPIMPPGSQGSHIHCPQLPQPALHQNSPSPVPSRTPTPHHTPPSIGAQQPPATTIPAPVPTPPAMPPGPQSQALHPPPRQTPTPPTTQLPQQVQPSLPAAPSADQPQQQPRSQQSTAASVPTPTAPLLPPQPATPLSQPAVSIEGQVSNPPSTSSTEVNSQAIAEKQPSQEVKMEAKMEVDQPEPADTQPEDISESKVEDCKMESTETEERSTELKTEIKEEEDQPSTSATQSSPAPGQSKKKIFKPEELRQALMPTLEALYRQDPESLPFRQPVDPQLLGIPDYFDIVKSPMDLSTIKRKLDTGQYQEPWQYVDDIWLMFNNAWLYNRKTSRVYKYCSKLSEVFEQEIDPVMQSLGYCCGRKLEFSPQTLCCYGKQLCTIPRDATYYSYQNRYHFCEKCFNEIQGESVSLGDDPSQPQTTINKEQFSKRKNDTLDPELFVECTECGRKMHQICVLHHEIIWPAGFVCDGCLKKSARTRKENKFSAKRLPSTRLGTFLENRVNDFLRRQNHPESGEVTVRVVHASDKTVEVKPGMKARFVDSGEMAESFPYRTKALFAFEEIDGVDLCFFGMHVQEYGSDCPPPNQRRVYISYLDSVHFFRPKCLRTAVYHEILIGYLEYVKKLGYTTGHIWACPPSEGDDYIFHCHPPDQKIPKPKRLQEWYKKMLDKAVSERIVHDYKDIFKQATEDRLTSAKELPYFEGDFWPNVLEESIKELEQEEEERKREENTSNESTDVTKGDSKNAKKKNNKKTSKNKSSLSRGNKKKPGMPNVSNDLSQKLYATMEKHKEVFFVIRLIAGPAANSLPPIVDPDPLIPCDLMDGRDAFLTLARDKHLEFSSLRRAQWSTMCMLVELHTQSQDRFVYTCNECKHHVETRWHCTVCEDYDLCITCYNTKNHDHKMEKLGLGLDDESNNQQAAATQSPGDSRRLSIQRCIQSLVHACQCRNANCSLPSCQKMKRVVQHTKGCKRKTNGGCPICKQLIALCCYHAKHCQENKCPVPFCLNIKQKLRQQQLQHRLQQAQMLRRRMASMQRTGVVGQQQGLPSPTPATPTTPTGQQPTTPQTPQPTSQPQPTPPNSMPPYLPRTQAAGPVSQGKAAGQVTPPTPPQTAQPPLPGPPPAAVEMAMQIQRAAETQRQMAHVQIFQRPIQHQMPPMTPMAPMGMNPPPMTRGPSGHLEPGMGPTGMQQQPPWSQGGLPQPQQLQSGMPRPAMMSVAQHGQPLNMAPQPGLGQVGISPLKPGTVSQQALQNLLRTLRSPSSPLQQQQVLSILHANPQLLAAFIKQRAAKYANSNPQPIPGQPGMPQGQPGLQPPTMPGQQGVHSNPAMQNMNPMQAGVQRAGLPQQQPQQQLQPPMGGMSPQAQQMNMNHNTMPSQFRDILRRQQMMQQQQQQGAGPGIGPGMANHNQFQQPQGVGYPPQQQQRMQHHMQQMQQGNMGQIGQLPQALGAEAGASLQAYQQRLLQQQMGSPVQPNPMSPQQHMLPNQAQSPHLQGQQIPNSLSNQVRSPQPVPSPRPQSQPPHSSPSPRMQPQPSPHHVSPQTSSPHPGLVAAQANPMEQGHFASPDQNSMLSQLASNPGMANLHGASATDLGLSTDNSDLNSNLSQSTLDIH

The term IC50 denotes the midpoint of a concentration-inhibition curve. Higher therefore signals lower potency. For `CNC(=O)N1CCc2c(c(N3CCCc4cc(-c5cnn(C)c5)c(C(F)F)cc43)nn2C2CCN(C(=O)CCOCCOCCC(=O)N[C@H](C(=O)N3C[C@H](O)C[C@H]3C(=O)NCc3ccc(-c4scnc4C)cc3)C(C)(C)C)CC2)C1` [P-067, 3-(7-(Difluoromethyl)-6-(1-methyl-1H-pyrazol-4-yl)-3,4-dihydroquinolin-1(2H)-yl)-1-(1-(3-(2-(3-(((S)-1-((2S,4R)-4-hydroxy-2-((4-(4-methylthiazol-5-yl)benzyl)carbamoyl)pyrrolidin-1-yl)-3,3-dimethyl-1-oxobutan-2-yl)amino)-3-oxopropoxy)ethoxy)propanoyl)piperidin-4-yl)-N-methyl-1,4,6,7-tetrahydro-5H-pyrazolo[4,3-c]pyridine-5-carboxamide], the inhibition at 0.01 µM on P300 was < 20%. The compound further gave an IC50 in the experiment on LNCaP cells of 32 nM.
On to `CNC(=O)N1CCc2c(c(N3CCCc4cc(-c5cnn(C)c5)c(C(F)F)cc43)nn2C2CCN(C(=O)COCCOCCOCC(=O)N[C@H](C(=O)N3C[C@H](O)C[C@H]3C(=O)NCc3ccc(-c4scnc4C)cc3)C(C)(C)C)CC2)C1` [P-068, 3-(7-(Difluoromethyl)-6-(1-methyl-1H-pyrazol-4-yl)-3,4-dihydroquinolin-1(2H)-yl)-1-(1-((S)-13-((2S,4R)-4-hydroxy-2-((4-(4-methylthiazol-5-yl)benzyl)carbamoyl)pyrrolidine-1-carbonyl)-14,14-dimethyl-11-oxo-3,6,9-trioxa-12-azapentadecanoyl)piperidin-4-yl)-N-methyl-1,4,6,7-tetrahydro-5H-pyrazolo[4,3-c]pyridine-5-carboxamide], for which, on P300, the inhibition at 0.01 µM is < 20%. In the experiment with LNCaP cells, this compound had an IC50 of 30.8 nM.
In the case of `CNC(=O)N1CCc2c(c(N3CCCc4cc(-c5cnn(C)c5)c(C(F)F)cc43)nn2C2CCN(C(=O)CCOCCOCCOCCC(=O)N[C@H](C(=O)N3C[C@H](O)C[C@H]3C(=O)NCc3ccc(-c4scnc4C)cc3)C(C)(C)C)CC2)C1` [P-069, 3-(7-(Difluoromethyl)-6-(1-methyl-1H-pyrazol-4-yl)-3,4-dihydroquinolin-1(2H)-yl)-1-(1-((S)-15-((2S,4R)-4-hydroxy-2-((4-(4-methylthiazol-5-yl)benzyl)carbamoyl)pyrrolidine-1-carbonyl)-16,16-dimethyl-13-oxo-4,7,10-trioxa-14-azaheptadecanoyl)piperidin-4-yl)-N-methyl-1,4,6,7-tetrahydro-5H-pyrazolo[4,3-c]pyridine-5-carboxamide], the inhibition at 0.01 µM at P300 is < 20%. Also, in the experiment on LNCaP cells, 36.1 nM corresponded to half-maximal inhibition (IC50).
As for `CNC(=O)N1CCc2c(c(N3CCCc4cc(-c5cnn(C)c5)c(C(F)F)cc43)nn2C2CCN(C(=O)CCOCCOCCOCCOCCC(=O)N[C@H](C(=O)N3C[C@H](O)C[C@H]3C(=O)NCc3ccc(-c4scnc4C)cc3)C(C)(C)C)CC2)C1` [P-070, 3-(7-(Difluoromethyl)-6-(1-methyl-1H-pyrazol-4-yl)-3,4-dihydroquinolin-1(2H)-yl)-1-(1-((S)-18-((2S,4R)-4-hydroxy-2-((4-(4-methylthiazol-5-yl)benzyl)carbamoyl)pyrrolidine-1-carbonyl)-19,19-dimethyl-16-oxo-4,7,10,13-tetraoxa-17-azaicosanoyl)piperidin-4-yl)-N-methyl-1,4,6,7-tetrahydro-5H-pyrazolo[4,3-c]pyridine-5-carboxamide], the inhibition at 0.01 µM at P300 is < 20%. This compound registered an IC50 with LNCaP cells of 31.9 nM.
For `CNC(=O)N1CCc2c(c(N3CCCc4cc(-c5cnn(C)c5)c(C(F)F)cc43)nn2C2CCN(C(=O)COCCOCCOCCOCCOCC(=O)N[C@H](C(=O)N3C[C@H](O)C[C@H]3C(=O)NCc3ccc(-c4scnc4C)cc3)C(C)(C)C)CC2)C1` [P-071, 3-(7-(Difluoromethyl)-6-(1-methyl-1H-pyrazol-4-yl)-3,4-dihydroquinolin-1(2H)-yl)-1-(1-((S)-19-((2S,4R)-4-hydroxy-2-((4-(4-methylthiazol-5-yl)benzyl)carbamoyl)pyrrolidine-1-carbonyl)-20,20-dimethyl-17-oxo-3,6,9,12,15-pentaoxa-18-azahenicosanoyl)piperidin-4-yl)-N-methyl-1,4,6,7-tetrahydro-5H-pyrazolo[4,3-c]pyridine-5-carboxamide], in that order: 20 to 50% and 107 nM.
For the compound `CNC(=O)N1CCc2c(c(N3CCCc4cc(-c5cnn(C)c5)c(C(F)F)cc43)nn2C2CCN(C(=O)CCOCCOCCOCCOCCOCCC(=O)N[C@H](C(=O)N3C[C@H](O)C[C@H]3C(=O)NCc3ccc(-c4scnc4C)cc3)C(C)(C)C)CC2)C1` [P-072, 3-(7-(Difluoromethyl)-6-(1-methyl-1H-pyrazol-4-yl)-3,4-dihydroquinolin-1(2H)-yl)-1-(1-((S)-21-((2S,4R)-4-hydroxy-2-((4-(4-methylthiazol-5-yl)benzyl)carbamoyl)pyrrolidine-1-carbonyl)-22,22-dimethyl-19-oxo-4,7,10,13,16-pentaoxa-20-azatricosanoyl)piperidin-4-yl)-N-methyl-1,4,6,7-tetrahydro-5H-pyrazolo[4,3-c]pyridine-5-carboxamide], the inhibition at 0.01 µM at P300 was < 20%. In addition, in the experiment on LNCaP cells, the IC50 amounted to 60.7 nM.
Regarding `CNC(=O)N1CCc2c(c(N3CCCc4cc(-c5cnn(CC(=O)NCCOCC(=O)N[C@H](C(=O)N6C[C@H](O)C[C@H]6C(=O)NCc6ccc(-c7scnc7C)cc6)C(C)(C)C)c5)c(C(F)F)cc43)nn2C2CCOCC2)C1` [P-073, 3-(7-(Difluoromethyl)-6-(1-(2-((2-(2-(((S)-1-((2S,4R)-4-hydroxy-2-((4-(4-methylthiazol-5-yl)benzyl)carbamoyl)pyrrolidin-1-yl)-3,3-dimethyl-1-oxobutan-2-yl)amino)-2-oxoethoxy)ethyl)amino)-2-oxoethyl)-1H-pyrazol-4-yl)-3,4-dihydroquinolin-1(2H)-yl)-N-methyl-1-(tetrahydro-2H-pyran-4-yl)-1,4,6,7-tetrahydro-5H-pyrazolo[4,3-c]pyridine-5-carboxamide], the inhibition at 0.01 µM at P300 was < 20%. For the same compound, the concentration for half-maximal inhibition (IC50) in the experiment on LNCaP cells was > 10000 nM.
With `CNC(=O)N1CCc2c(c(N3CCCc4cc(-c5cnn(CC(=O)NCCOCCOCCC(=O)N[C@H](C(=O)N6C[C@H](O)C[C@H]6C(=O)NCc6ccc(-c7scnc7C)cc6)C(C)(C)C)c5)c(C(F)F)cc43)nn2C2CCOCC2)C1` [P-075, 3-(7-(Difluoromethyl)-6-(1-((S)-14-((2S,4R)-4-hydroxy-2-((4-(4-methylthiazol-5-yl)benzyl)carbamoyl)pyrrolidine-1-carbonyl)-15,15-dimethyl-2,12-dioxo-6,9-dioxa-3,13-diazahexadecyl)-1H-pyrazol-4-yl)-3,4-dihydroquinolin-1(2H)-yl)-N-methyl-1-(tetrahydro-2H-pyran-4-yl)-1,4,6,7-tetrahydro-5H-pyrazolo[4,3-c]pyridine-5-carboxamide], the inhibition at 0.01 µM at P300 was < 20%. Besides, the IC50 in the experiment on LNCaP cells is > 10000 nM.
For `CNC(=O)N1CCc2c(c(N3CCCc4cc(-c5cnn(CC(=O)NCCOCCOCCOCC(=O)N[C@H](C(=O)N6C[C@H](O)C[C@H]6C(=O)NCc6ccc(-c7scnc7C)cc6)C(C)(C)C)c5)c(C(F)F)cc43)nn2C2CCOCC2)C1` [P-076, 3-(7-(Difluoromethyl)-6-(1-((S)-16-((2S,4R)-4-hydroxy-2-((4-(4-methylthiazol-5-yl)benzyl)carbamoyl)pyrrolidine-1-carbonyl)-17,17-dimethyl-2,14-dioxo-6,9,12-trioxa-3,15-diazaoctadecyl)-1H-pyrazol-4-yl)-3,4-dihydroquinolin-1(2H)-yl)-N-methyl-1-(tetrahydro-2H-pyran-4-yl)-1,4,6,7-tetrahydro-5H-pyrazolo[4,3-c]pyridine-5-carboxamide] the same measures were < 20% and > 10000 nM.
In the case of `CNC(=O)N1CCc2c(c(N3CCCc4cc(-c5cnn(CC(=O)NCCOCCOCCOCCC(=O)N[C@H](C(=O)N6C[C@H](O)C[C@H]6C(=O)NCc6ccc(-c7scnc7C)cc6)C(C)(C)C)c5)c(C(F)F)cc43)nn2C2CCOCC2)C1` [P-077, 3-(7-(Difluoromethyl)-6-(1-((S)-17-((2S,4R)-4-hydroxy-2-((4-(4-methylthiazol-5-yl)benzyl)carbamoyl)pyrrolidine-1-carbonyl)-18,18-dimethyl-2,15-dioxo-6,9,12-trioxa-3,16-diazanonadecyl)-1H-pyrazol-4-yl)-3,4-dihydroquinolin-1(2H)-yl)-N-methyl-1-(tetrahydro-2H-pyran-4-yl)-1,4,6,7-tetrahydro-5H-pyrazolo[4,3-c]pyridine-5-carboxamide], on P300, the inhibition at 0.01 µM was < 20%. In the experiment with LNCaP cells, the IC50 is > 10000 nM.
`CNC(=O)N1CCc2c(c(N3CCCc4cc(-c5cnn(CC(=O)NCCOCCOCCOCCOCCC(=O)N[C@H](C(=O)N6C[C@H](O)C[C@H]6C(=O)NCc6ccc(-c7scnc7C)cc6)C(C)(C)C)c5)c(C(F)F)cc43)nn2C2CCOCC2)C1` [P-078, 3-(7-(Difluoromethyl)-6-(1-((S)-20-((2S,4R)-4-hydroxy-2-((4-(4-methylthiazol-5-yl)benzyl)carbamoyl)pyrrolidine-1-carbonyl)-21,21-dimethyl-2,18-dioxo-6,9,12,15-tetraoxa-3,19-diazadocosyl)-1H-pyrazol-4-yl)-3,4-dihydroquinolin-1(2H)-yl)-N-methyl-1-(tetrahydro-2H-pyran-4-yl)-1,4,6,7-tetrahydro-5H-pyrazolo[4,3-c]pyridine-5-carboxamide]: at P300, the inhibition at 0.01 µM was < 20%. In addition, the IC50 in the experiment on LNCaP cells is > 10000 nM.
